# Like-named read-outs stand apart in the source and are kept apart here.
# Assays:
# [1] = biological target: T1, S. aureus RNase P (RnpA + rnpB) (Staphylococcus aureus, UniProt P0A0H5); experiment: RnpA-dependent RNase P in vitro ptRNA^Tyr processing assay; format: biochemical
# T1 construct: hexahistidine (His6) (N); made in house; host or cells: E. coli BL21 (DE3), plasmid pEXP5-nt
# T1 sequence (P0A0H5 1-117): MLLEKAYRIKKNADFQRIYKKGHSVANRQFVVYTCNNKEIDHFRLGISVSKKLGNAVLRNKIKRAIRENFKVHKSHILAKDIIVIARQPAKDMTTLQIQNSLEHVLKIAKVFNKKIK
# Method: S. aureus RNase P activity assays were performed according to conditions described previously. Briefly, ptRNA^Tyr and rnpB RNA species were first denatured by heating to 95 °C for 5 min then slow cooled to room temperature. RNase P was reconstituted by mixing an equal molar ratio of rnpB and RnpA for 15 min at 37 °C. Precursor tRNA processing inhibition reactions were performed by mixing 1.25 pmol of reconstituted RNase P (RnpA + rnpB) with an equal volume of 2× low salt buffer (50 mM Tris-HCl pH 8.0, 5 mM MgCl2) in the presence of DMSO (negative control) or the indicated compound (≤500 µM) and incubated for 5 min at 37 °C. 5 pmol ptRNA^Tyr was added and the mixture was incubated at 37 °C 15 min. Reactions were stopped by adding 2× RNA loading dye and heating at 65 °C for 10 min. Each sample was electrophoresed in a 7 M urea/8% polyacrylamide gel then stained with ethidium bromide. The Biorad EZ Gel Doc imaging system was used to visualize the RNA and relative abundance of the mature tRNA^Tyr band (% processing) in the negative control or in samples containing the indicated compounds and analyzed using Biorad Image Lab densitometry software. The inhibitory activity of the indicated compounds were calculated as a % inhibition using the following equation: […].
# To assess IC50, % RNase P processing inhibition was plotted against compound concentration and a linear best fit equation was generated to calculate the IC50.
# S. aureus RnpA = biological target: T2, S. aureus RnpA (Staphylococcus aureus, UniProt P0A0H5); experiment: RnpA-mediated in vitro spa mRNA degradation assay; format: biochemical
# T2 construct: hexahistidine (His6) (N); made in house; host or cells: E. coli BL21 (DE3), plasmid pEXP5-nt
# T2 sequence (P0A0H5 1-117): T1 sequence (P0A0H5 1-117)
# Method: RnpA-mediated RNA degradation assays were performed as previously described. Briefly, 1 pmol of spa mRNA was incubated with 5 pmol RnpA at 37 °C for 30 min in reaction buffer (50 mM Tris-HCl pH 8.0, 2 mM NaCl, 2 mM MgCl2) in the absence or presence of the indicated compound (≤500 µM). The inhibitory effects of the test compounds were calculated using Biorad ImageLab densitometry software to measure the signal intensity of the spa band in the negative control (spa alone), positive control (RnpA + spa + DMSO), and experimental samples (RnpA + spa + test compound) separated on a 1.2% formaldehyde-agarose gel. Background signal from the positive control sample sometimes resulted due to incomplete degradation of transcripts. Thus, the signal intensity of the positive control was taken into account when calculating the percent inhibition. The raw signals from the positive (+RnpA) and negative (-RnpA) controls were converted into percentage, by normalizing the positive control (+RnpA) signal to 0% RnpA inhibition and the negative control (-RnpA) to 100% RnpA inhibition. Similarly, the raw signals from the test compounds were reported as percent RnpA inhibition using the following equation: [(experimental−positive control)/(negative control−positive control)] × 100. […] To assess IC50, % RnpA degradation inhibition was plotted against compound concentration; a linear best fit equation was generated and utilized to calculate the IC50.
# S. aureus UAMS-1 = experiment: Minimum inhibitory concentration (MIC) testing; format: cell-based, Staphylococcus aureus
# Method: Minimum inhibitory concentration (MIC) testing was performed using to Clinical & Laboratory Standards Institute (CLSI) guidelines. Accordingly, individual wells of a 96-well microtiter plate were inoculated with 10^4 colony forming units (CFU) of S. aureus UAMS-1 containing two-fold increasing concentrations (0 to 256 μg·mL^−1) of the indicated antibiotic or putative RnpA inhibitor compound, and incubated at 37 °C for 16 h in MHB. The MIC was defined as the lowest concentration of compound in which there was no visible bacterial growth in the well.
# HepG2 cells = experiment: MTT human cell cytotoxicity testing; format: cell-based; settings: 4× MIC exposure for 24 h; for MTT = % HepG2 cell survival: SAR figures; for % HepG2 Cell Survival: MTT
# Method: Human HepG2 hepatocytes were seeded in individual wells of a 96-well cell-culture treated microtiter plate at a concentration of 1 × 10^5 cells per well and incubated in Dulbecco’s Modified Eagle Medium (DMEM) supplemented with 10% fetal bovine serum at 37 °C with 5% carbon dioxide overnight. Cells were then treated with DMSO (negative control) or the indicated agent for 24 h. MTT Cell Proliferation Assay Kits were used to assess viability according to the manufacturer’s recommendations (American Type Culture Collection; Manassas, VA, USA).
# [2] = SAR figures, in vitro ptRNA^Tyr processing, read-out: pIC50 = processing IC50 (converted)
# [3] = SAR figures, read-out: dIC50 = degradation IC50
# [4] = Staphylococcus aureus, UAMS1, 16 h, S. aureus UAMS-1, 16 h in MHB, read-out: MIC
# [5] = Staphylococcus aureus, UAMS1, SAR figures, S. aureus UAMS-1, read-out: MIC
# [6] = in vitro ptRNA^Tyr processing, read-out: Processing IC50
# [7] = Table S1, mupirocin synergy screening initial hits, read-out: processing IC50
# [8] = Table S1, mupirocin synergy screening initial hits
Compound,"IC50 [1, 2]",IC50 (S. aureus RnpA; [3]),MIC (S. aureus UAMS-1; [4]),MIC (S. aureus UAMS-1; [5]),MTT = % HepG2 cell survival (HepG2 cells),"IC50 [1, 6]",IC50 (S. aureus RnpA; read-out: Degradation IC50),other results
CCC1CCCCN1C(=O)Nc1ccccc1 (stereo not drawn) [JC3c],> 500 µM,> 500 µM,> 256 µg/mL,> 256 µg/mL,,,,
O=C(Nc1ccccc1)c1c(NC(=O)C(F)(F)F)sc2c1CCCCC2 [JR4],10 µM,63 µM,,,,,,
CN1CCN(C(=O)Nc2cc(Cl)cc(Cl)c2)CC1 [JC6],> 500 µM,> 500 µM,8 µg/mL,8 µg/mL,61.6%,≥ 450 µM,≥ 450 µM,
COc1ccc(NC(=O)c2c(NC(=O)C(F)(F)F)sc3c2CCCCC3)cc1 [JR6],22 µM,,0.25 to 1 µg/mL,1 µg/mL,53.3%,,> 250 µM,
CCCN1CCN(C(=O)Nc2cc(Cl)cc(Cl)c2)CC1 [JC8],> 500 µM,450 µM,1 µg/mL,1 µg/mL,109%,≥ 450 µM,≥ 450 µM,% HepG2 Cell Survival (HepG2 cells): 109.2%
O=C(Nc1ccccc1Cl)c1c(NC(=O)C(F)(F)F)sc2c1CCCC2 [JR2b],,62 µM,> 256 µg/mL,> 256 µg/mL,59.5%,100 µM,,
CC1CCN(C(=O)Nc2cccc(Cl)c2)CC1 [JC1b],> 500 µM,> 500 µM,> 256 µg/mL,> 256 µg/mL,,,,
CC(=O)Nc1sc2c(c1C(=O)Nc1ccc(Cl)cc1)CCCCC2 [JR1b],,,> 256 µg/mL,> 256 µg/mL,84.9%,115 µM,> 250 µM,
CCC1CCCCN1C(=O)Nc1ccc(Br)cc1 (stereo not drawn) [JC3e],> 500 µM,> 500 µM,> 256 µg/mL,> 256 µg/mL,,,,
O=C(Nc1ccc(Cl)cc1)c1c(NC(=O)C(F)(F)F)sc2c1CCCCC2 [JR1],,,0.25 to 1 µg/mL,0.5 µg/mL,80.6%,12 µM,62.5 µM,"% HepG2 Cell Survival (HepG2 cells; listed as ST016037): 81%; MIC (S. aureus UAMS-1; S. aureus UAMS-1, 16 h in MHB, listed as ST016037): 0.5 µg/mL; MIC (S. aureus UAMS-1; Staphylococcus aureus, UAMS1, 16 h, Table S1, mupirocin synergy screening initial hits, read-out: MIC): 0.5 µg/mL"
c1ccc(Nc2nc(-c3ccccn3)cs2)nc1 [compound 5625000],,,,,,,,"IC50 [1, 7]: > 500 µM; MIC (S. aureus UAMS-1; [8]): 1.59 µg/mL"
O=C(Nc1cccc(Cl)c1)N1CCCCCC1 [JC5b],> 500 µM,> 500 µM,> 256 µg/mL,> 256 µg/mL,,,,
O=C(Nc1ccc(Cl)cc1)N1CCCCCC1 [JC5c],> 500 µM,> 500 µM,> 256 µg/mL,> 256 µg/mL,,,,
O=C(Nc1ccccc1Cl)c1c(NC(=O)C(F)(F)F)sc2c1CCCCC2 [JR2],2 µM,100 µM,0.25 to 1 µg/mL,0.5 µg/mL,85.3%,,,
CCN1CCN(C(=O)Nc2cc(Cl)cc(Cl)c2)CC1 [JC7],> 500 µM,> 500 µM,8 µg/mL,8 µg/mL,75.7%,≥ 450 µM,≥ 450 µM,
O=S(=O)(Nc1cccc2cccnc12)c1ccccc1 [compound 5175130],,,,,,,,"IC50 [1, 7]: > 500 µM; MIC (S. aureus UAMS-1; [8]): 14.22 µg/mL"
O=C(Nc1cccc(Cl)c1)c1c(NC(=O)C(F)(F)F)sc2c1CCCCC2 [JR3],7 µM,25 µM,0.25 to 1 µg/mL,0.25 µg/mL,90.4%,,,
Nc1sc2c(c1C(=O)Nc1ccc(Cl)cc1)CCCCC2 [JR1c],,,64 µg/mL,64 µg/mL,54.5%,25 µM,175 µM,
O=C(Nc1cc(Cl)cc(Cl)c1)N1CCCCCC1 [JC5],,,128 µg/mL,128 µg/mL,65.3%,225 µM,200 µM,
"C/C(=C\C(=O)OCCCCCCCCC(=O)O)C[C@@H]1OC[C@H](C[C@@H]2O[C@H]2[C@@H](C)[C@H](C)O)[C@@H](O)[C@H]1O [mupirocin, reference compound]",,,0.125 µg/mL,,,,,
CC1CCCCN1C(=O)Nc1ccccc1 (stereo not drawn) [JC2b],> 500 µM,> 500 µM,> 256 µg/mL,> 256 µg/mL,,,,
Cc1ccc(NC(=O)N2CCCCC2C)cc1Cl (stereo not drawn) [JC2c],> 500 µM,> 500 µM,> 256 µg/mL,> 256 µg/mL,,,,
CC1CN(C(=O)Nc2cc(Cl)cc(Cl)c2)CC(C)O1 (stereo not drawn) [JC9],,,,32 µg/mL,82.5%,> 500 µM,> 500 µM,
O=C(Nc1cccc(Cl)c1)c1c(NC(=O)C(F)(F)F)sc2c1CCCC2 [JR3b],6 µM,35 µM,,0.5 µg/mL,103.7%,,,
Cc1cccc(/C=C/c2ccc3cccc(O)c3n2)c1O [compound 6634438],,,,,,,,"IC50 [1, 7]: < 62.5 µM; MIC (S. aureus UAMS-1; [8]): 10.40 µg/mL"
CCC1CCCCN1C(=O)Nc1cccc(C)c1 (stereo not drawn) [JC3f],> 500 µM,> 500 µM,> 256 µg/mL,> 256 µg/mL,,,,
